Measured values from PubChem BioAssay (NCI).
Several values for one entry are separate records, joined by “and”; a condition that tells them apart may be missing. Identical values can stand only once.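 In this assay, cells in 96-well plates receive the compound at five concentrations for 48 hours. Endpoints are linearly interpolated between the surrounding concentrations. GI50: concentration for 50% inhibition of growth. TGI: concentration producing complete growth inhibition.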

System: OVCAR-4 ovarian
Assay: growth of human tumour cells (NCI), 48 h

| SMILES | GI50 | TGI |
| --- | --- | --- |
| CCOC(=O)[C@]1(OC(C)=O)C[C@H](OC(C)=O)[C@@H](C(F)COP(=O)(OCc2ccccc2)OCc2ccccc2)O1 (some centres not stated) | 18 µM and > 100 µM | 39 µM and > 100 µM |
| c1ccc2cc(-c3cc(-c4cc(-c5ccc6ccccc6c5)on4)no3)ccc2c1 |  | > 100 µM |
| CC1(c2ccc(F)cc2)C(C#N)C(=O)NC(=O)C1C#N (configuration not stated) |  | > 100 µM |
| O=C1C2C(C(=O)N1OS(=O)(=O)c1ccccc1)N(Cc1ccccc1)C(=O)N2Cc1ccccc1 (configuration not stated) |  | > 100 µM |
| COc1cc(-c2nn(-c3ccc(NC(=O)c4ccc(Cl)c(C(F)(F)F)c4)cc3)cc2-c2ccncc2)ccc1Cl | 5.05 µM | > 100 µM |
| CN(C)CC[N+]1=Nc2cccc3cccc(c23)N1 |  | > 100 µM |
| COc1ccc2c(C3=C(c4cn(C)c5ccccc45)C(=O)NC3=O)cn(C)c2c1 | 0.258 µM | > 25 µM |
| Cc1ccc(N=Nc2ccc(N(CCC#N)CCC#N)cc2C)c(Br)c1 |  | > 100 µM |
| COc1ccc2c3c1C(=O)CCCC3CO2 (configuration not stated) |  | > 100 µM |

System: UACC-257 melanoma
Assay: growth of human tumour cells (NCI), 48 h

| SMILES | TGI | GI50 |
| --- | --- | --- |
| CCCCC(=O)OCC(=O)[C@]1(O)Cc2c(O)c3c(c(O)c2[C@@H](OC2CC(NC(=O)C(F)(F)F)C(O)C(C)O2)C1)C(=O)c1c(OC)cccc1C3=O (some centres not stated) | 8.08 µM |  |
| C[C@]12CC[C@H](O)CC1=CC[C@@H]1C2CC[C@]2(C)C(=O)N(N)C(=O)CC12 (some centres not stated) | > 100 µM |  |
| C=C(CN1CCN(c2ccc(Cl)cc2F)CC1)c1ccc(C(=O)Nc2ccccc2N)cc1 | 48.6 µM | 1.59 µM |
| CC(C)=CC(=O)C1c2cccc(O)c2C(=O)c2c(O)cc(C)cc21 (configuration not stated) | 8.5 µM |  |
| COC(CN1C(=O)c2cccc3cccc(c23)C1=O)OC | > 100 µM |  |
| O=C(Nc1ccccc1)NS(=O)(=O)c1ccc(-n2nc3c(c2-c2cccs2)Cc2ccccc2-3)cc1 | 67.7 µM | 17.7 µM |
| O=C1C=C(Cl)C(=O)C(c2ccc(Cl)cc2)=C1 | 40.7 µM |  |
| Cc1ccc2c(=O)cc(-c3ccc(F)cc3)[nH]c2n1 | > 100 µM |  |
| CCOc1ccc(NC(=O)C(=O)CC(=O)c2c[n+](=O)c3cc(C)c(C)cc3n2[O-])cc1 | > 100 µM |  |
| Cn1cc(C2=C(c3cn(C)c4ncccc34)C(=O)NC2=O)c2ccccc21 | > 25 µM | 12.8 µM |
| O=C1C(Cl)=C(Nc2cccc(Cl)c2)C(=O)N1Cc1ccc(Cl)cc1Cl | 24.8 µM | 5.94 µM |
| O=C(/C=C/C12c3ccccc3C(c3ccccc31)C1C(=O)NC(=O)C12)c1ccncc1 (configuration not stated) | 9.19 µM | 2.7 µM |
| CC12CCC(O)CC1CCC1C2CCC2(C)C(C3=CC(=O)OC3)CCC12O (configuration not stated) | > 43.4 µM |  |
| COc1ccc2c(c1)/C(=C/c1c(C)nc3sc(C)nn13)C(=O)N2 | > 100 µM | > 100 µM |
| Cc1cc(I)cc(CN(C)CCCCN2CCCCC2)c1O | 15.1 µM | 4.2 µM |
| Cc1ccc(C(=O)/C(=C/c2ccc([N+](=O)[O-])cc2)SCc2ccc(Cl)cc2)cc1 | 34.2 µM | 9.77 µM |

| SMILES | TGI | GI50 |
| --- | --- | --- |
| O=C(Nc1ccc(Cl)c(Cl)c1)Nc1ccc(Cl)c(Cl)c1 | 6.96 µM and 5.85 µM | 2.39 µM and 2.05 µM |
| C#Cc1ccc(-n2c(/C=C/c3ccc(C(F)(F)F)cc3)nc3ncccc3c2=O)cc1 | 2.95 µM | 1.56 µM |
| COc1cc(/C=N/NC(=O)c2ccc(C(F)(F)F)nc2Nc2ccc(Cl)cc2C)ccc1O | 13.4 µM | 3.97 µM |
| O=C(N/C(=C\c1ccc(/C=C(\NC(=O)c2ccccc2)c2nc3cc([N+](=O)[O-])ccc3[nH]2)cc1)c1nc2cc([N+](=O)[O-])ccc2[nH]1)c1ccccc1 | > 100 µM |  |
| COc1ccc(C(=O)Cn2c(C(=O)c3ccccc3)nc(-c3ccc(OC)cc3)c2-c2ccc(OC)cc2)cc1 | > 100 µM | > 100 µM |
| O=C1c2ccccc2C2C1N2C(=O)C(F)(F)F (configuration not stated) | > 100 µM |  |
| CCOC(=O)[C@]1(OC(C)=O)C[C@H](OC(C)=O)[C@@H](C(F)COP(=O)(OCc2ccccc2)OCc2ccccc2)O1 (some centres not stated) | > 100 µM |  |
| c1ccc2cc(-c3cc(-c4cc(-c5ccc6ccccc6c5)on4)no3)ccc2c1 | > 100 µM |  |
| CC1(c2ccc(F)cc2)C(C#N)C(=O)NC(=O)C1C#N (configuration not stated) | > 100 µM |  |
| O=C1C2C(C(=O)N1OS(=O)(=O)c1ccccc1)N(Cc1ccccc1)C(=O)N2Cc1ccccc1 (configuration not stated) | > 100 µM |  |
| COc1cc(-c2nn(-c3ccc(NC(=O)c4ccc(Cl)c(C(F)(F)F)c4)cc3)cc2-c2ccncc2)ccc1Cl | > 100 µM | 6.91 µM |
| CN(C)CC[N+]1=Nc2cccc3cccc(c23)N1 | > 100 µM |  |
| COc1ccc2c(C3=C(c4cn(C)c5ccccc45)C(=O)NC3=O)cn(C)c2c1 | > 25 µM | 1.61 µM |
| Cc1ccc(N=Nc2ccc(N(CCC#N)CCC#N)cc2C)c(Br)c1 | > 100 µM |  |
| COc1ccc2c3c1C(=O)CCCC3CO2 (configuration not stated) | > 100 µM |  |
